Assay results reported in patent US8148083B2, “Methods of screening for TRPM4 modulators of insulin secretion” (The Queen's Medical Center, priority 2006, dated 2012).
Read-outs that look alike come from different tables or passages of the source.

Columns and labels:
TRPM4 [1] = assay: Agonist-induced TRPM4 currents in TrexHEK293 cells overexpressing TRPM4 (double carbachol application); assay type: cell-based, human
Protocol: Patch-clamp experiments were performed in the tight-seal whole-cell configuration at 21-25 ° C. High-resolution current recordings were acquired by a computer-based patch-clamp amplifier system (EPC-9, HEKA, Lambrecht, Germany). Patch pipettes had resistance between 3-6 MΩ after filling with the standard intracellular solution. […] Currents were filtered at 2.9 kHz and digitized at 100 μs intervals. Capacitive currents and series resistance were determined and corrected before each voltage ramp using the automatic capacitance compensation of the EPC-9. The low-resolution temporal development of membrane currents was assessed by extracting the current amplitude at -80 mV or +80 mV from individual ramp current records. Data analysis, statistical analysis and graphical display of patch-clamp experiments were done using the Igor […] software program (Wavemetrics). […] Cells were treated with carbachol twice according to protocol used in the calcium measurement experiments (n=5). First, to induce exocytosis of TRPM4 containing vesicles and second to activate the new pool of TRPM4 present in the plasma membrane. Utilizing Ca^2+ imaging techniques, fura-2-AM loaded cells were stimulated with 1 mM carbachol for 200 s followed by washout and a second stimulation (FIG. 9A). […]

TRPM4 [2] = molecular target: T1, TRPM4 (Homo sapiens, UniProt Q8TD43); assay: Whole-cell patch-clamp of TRPM4 currents in TrexHEK-293 cells overexpressing TRPM4, buffered [Ca2+]i; assay type: cell-based; conditions: flag-TRPM4-TrexHEK293, current at +80 mV
T1 construct: expressed in transfected cells; host or cells: TrexHEK-293 (tetracycline-inducible HEK-293)
T1 sequence (Q8TD43 whole entry): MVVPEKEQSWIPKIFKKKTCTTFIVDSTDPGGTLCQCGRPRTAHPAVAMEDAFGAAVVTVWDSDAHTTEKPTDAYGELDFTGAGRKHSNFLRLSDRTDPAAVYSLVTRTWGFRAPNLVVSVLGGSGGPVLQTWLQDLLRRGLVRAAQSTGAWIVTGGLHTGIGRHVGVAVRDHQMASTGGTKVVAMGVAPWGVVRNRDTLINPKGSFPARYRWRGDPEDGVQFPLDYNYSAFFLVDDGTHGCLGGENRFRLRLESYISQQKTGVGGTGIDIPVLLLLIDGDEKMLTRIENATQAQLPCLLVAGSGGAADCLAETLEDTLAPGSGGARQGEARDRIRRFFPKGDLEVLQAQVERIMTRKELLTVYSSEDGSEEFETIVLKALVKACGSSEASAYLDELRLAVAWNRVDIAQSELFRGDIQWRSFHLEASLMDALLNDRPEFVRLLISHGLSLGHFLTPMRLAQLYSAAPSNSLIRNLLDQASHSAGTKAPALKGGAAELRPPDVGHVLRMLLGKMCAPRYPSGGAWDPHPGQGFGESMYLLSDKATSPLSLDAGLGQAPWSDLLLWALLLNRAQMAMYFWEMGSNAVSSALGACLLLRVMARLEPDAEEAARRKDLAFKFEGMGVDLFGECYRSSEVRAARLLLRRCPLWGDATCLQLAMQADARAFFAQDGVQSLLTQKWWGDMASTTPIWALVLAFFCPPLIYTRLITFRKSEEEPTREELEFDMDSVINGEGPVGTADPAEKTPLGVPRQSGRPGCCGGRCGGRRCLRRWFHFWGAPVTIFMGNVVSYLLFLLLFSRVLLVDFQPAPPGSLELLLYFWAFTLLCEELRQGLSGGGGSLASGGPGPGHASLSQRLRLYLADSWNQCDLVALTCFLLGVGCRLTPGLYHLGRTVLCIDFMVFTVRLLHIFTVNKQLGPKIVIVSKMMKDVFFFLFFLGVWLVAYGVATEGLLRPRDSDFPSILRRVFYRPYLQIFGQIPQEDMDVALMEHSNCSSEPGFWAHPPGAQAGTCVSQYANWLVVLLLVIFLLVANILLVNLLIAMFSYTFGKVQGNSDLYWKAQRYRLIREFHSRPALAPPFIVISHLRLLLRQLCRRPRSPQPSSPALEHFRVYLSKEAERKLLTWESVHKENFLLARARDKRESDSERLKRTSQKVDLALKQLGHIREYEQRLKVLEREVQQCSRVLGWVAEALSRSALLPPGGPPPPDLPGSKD

TRPM4 [3] = molecular target: T2, TRPM4 (Rattus norvegicus, UniProt Q9ESQ5); assay: Whole-cell patch-clamp of TRPM4 currents in INS-1 cells perfused with buffered [Ca2+]i; assay type: cell-based; parameters: The channel was detected in INS-1 and RINm5F cell lines; endogenous in cells; host or cells: INS-1 (rat insulinoma beta-cell line); conditions: current amplitude at +80 mV
T2 sequence (Q9ESQ5 whole entry, the tested form may be a part): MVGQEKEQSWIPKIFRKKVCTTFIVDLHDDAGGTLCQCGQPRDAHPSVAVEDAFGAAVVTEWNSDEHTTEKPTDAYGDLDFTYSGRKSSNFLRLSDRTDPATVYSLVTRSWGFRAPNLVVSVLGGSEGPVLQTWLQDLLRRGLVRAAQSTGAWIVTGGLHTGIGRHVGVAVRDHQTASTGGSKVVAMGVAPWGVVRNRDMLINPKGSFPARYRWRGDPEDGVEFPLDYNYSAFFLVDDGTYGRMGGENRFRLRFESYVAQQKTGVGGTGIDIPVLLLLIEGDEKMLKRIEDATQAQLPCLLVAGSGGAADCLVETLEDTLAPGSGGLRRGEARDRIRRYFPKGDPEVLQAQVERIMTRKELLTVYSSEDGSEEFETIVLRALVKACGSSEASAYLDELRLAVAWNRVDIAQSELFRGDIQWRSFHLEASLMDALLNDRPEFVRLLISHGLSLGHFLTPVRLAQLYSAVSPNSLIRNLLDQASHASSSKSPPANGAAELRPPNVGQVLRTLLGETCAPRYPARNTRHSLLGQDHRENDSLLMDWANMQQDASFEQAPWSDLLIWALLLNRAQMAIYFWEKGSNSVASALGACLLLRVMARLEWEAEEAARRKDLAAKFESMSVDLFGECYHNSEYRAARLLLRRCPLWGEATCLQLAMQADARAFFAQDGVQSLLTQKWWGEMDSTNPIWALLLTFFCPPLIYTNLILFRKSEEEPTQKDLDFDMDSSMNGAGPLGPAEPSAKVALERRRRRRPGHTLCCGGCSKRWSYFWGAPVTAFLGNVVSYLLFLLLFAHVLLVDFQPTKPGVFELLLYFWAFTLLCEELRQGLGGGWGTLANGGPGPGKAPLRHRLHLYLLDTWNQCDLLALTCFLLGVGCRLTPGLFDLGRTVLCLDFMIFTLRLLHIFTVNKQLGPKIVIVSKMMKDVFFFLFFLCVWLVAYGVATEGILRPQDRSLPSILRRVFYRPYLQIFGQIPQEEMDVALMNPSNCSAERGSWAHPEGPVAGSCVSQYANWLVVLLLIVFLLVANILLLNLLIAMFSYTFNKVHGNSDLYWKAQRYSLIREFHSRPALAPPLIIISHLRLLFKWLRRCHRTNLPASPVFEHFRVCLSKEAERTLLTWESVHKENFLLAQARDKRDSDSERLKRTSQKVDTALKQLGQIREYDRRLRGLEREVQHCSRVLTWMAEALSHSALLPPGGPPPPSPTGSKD

TRPM4 [4] = molecular target: T2, TRPM4; assay: Glibenclamide on TRPM4 currents in INS-1 cells; conditions: pressure applied
[5] = 600 s, read-out: KD, dose-response fit of TRPM4 activation, secondary phase

Structure (SMILES): C[N+](C)(C)CCOC(N)=O [carbachol]
- TRPM4 current amplitude (TRPM4 [1]; first application of 1 mM carbachol): less than 1 nA
- TRPM4 current amplitude (TRPM4 [1]; second carbachol application after washout): around 10 nA

Structure (SMILES): [Ca+2] [Ca^2+]
- Kd (TRPM4 [2]; [5]): 1.3 µM
- Kd (TRPM4 [2]; peak of first phase, read-out: KD, dose-response fit of TRPM4 activation, first phase): 1.2 µM
- Kd (TRPM4 [3]; 80 s, read-out: KD, dose-response fit of TRPM4 activation, first phase): 1.7 µM
- Kd (TRPM4 [3]; [5]): 1.2 µM

Structure (SMILES): COc1ccc(Cl)cc1C(=O)NCCc1ccc(S(=O)(=O)NC(=O)NC2CCCCC2)cc1 [Glibenclamide, glibenclamide]
- effect on TRPM4 channels (TRPM4 [4]): activates TRPM4 channels
